Consider one compound from US20250381143A1, “A SOLID PHARMACEUTICAL COMPOSITION” (ADLAI NORTYE BIOPHARMA CO., LTD., priority 2021, published 2025).

Each structure is given as a SMILES string.

The data set in a line: Biopharmaceutical Classification System class. In kind it is physicochemical. The source says:
The present disclosure relates to a quality controllable solid dosage form and a process for its preparation, wherein the solid dosage form comprises a compound of formula 1 4-{(1S)-1-[({3-(difluoromethyl)-1-methyl-5-[3-(trifluoromethyl)phenoxy]-4-1H-pyrazolyl} carbonyl)amino]ethyl}benzoic acid (compound AN0025) and optionally at least one pharmaceutically acceptable carrier. […] The inventor unexpectedly found in the experiment that AN0025 tablets prepared by different processes can show good uniformity in in vitro dissolution experiments, and AN0025 tablets prepared with different API particle sizes have similar in vitro dissolution behavior and in vivo exposure.

For the compound `C[C@H](NC(=O)c1c(C(F)F)nn(C)c1Oc1cccc(C(F)(F)F)c1)c1ccc(C(=O)O)cc1` [AN0025, 4-{(1S)-1-[({3-(difluoromethyl)-1-methyl-5-[3-(trifluoromethyl)phenoxy]-4-1H-pyrazolyl}carbonyl)amino]ethyl}benzoic acid], the “Biopharmaceutical Classification System class” value is given as “class IV”. Moreover, the solubility entry (as per BCS class) was “low solubility”.
